Measurements reported in PubChem BioAssay (NCI).
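Following 48 hours of exposure in 96-well plates, responses at five concentrations were used to interpolate endpoints linearly. TGI: total growth inhibition.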

Assays:
Experiment in all cases: DTP human tumour cell line panel, 48 h
COLO 205 colon = system: COLO 205 colon
NCI-H226 lung = system: NCI-H226 lung
XF 498 CNS = system: XF 498 CNS
HOP-18 NSCLC = system: HOP-18 NSCLC
SK-MEL-28 melanoma = system: SK-MEL-28 melanoma
K-562 leukemia = system: K-562 leukemia
M19-MEL melanoma = system: M19-MEL melanoma
A549 NSCLC = system: A549 NSCLC
CCRF-CEM leukemia = system: CCRF-CEM leukemia
EKVX NSCLC = system: EKVX NSCLC
DMS 114 small cell lung = system: DMS 114 small cell lung
HT29 colon = system: HT29 colon
RXF 393 renal = system: RXF 393 renal
HCT-116 colon = system: HCT-116 colon
ACHN renal = system: ACHN renal
NCI-H23 lung = system: NCI-H23 lung
HCT-15 colon = system: HCT-15 colon
SF-268 CNS = system: SF-268 CNS
HL-60(TB) leukemia = system: HL-60(TB) leukemia
U251 CNS = system: U251 CNS
IGROV1 ovarian = system: IGROV1 ovarian
SF-295 CNS = system: SF-295 CNS
LOX IMVI melanoma = system: LOX IMVI melanoma
HOP-62 NSCLC = system: HOP-62 NSCLC
MALME-3M melanoma = system: MALME-3M melanoma
UACC-257 melanoma = system: UACC-257 melanoma
SK-MEL-5 melanoma = system: SK-MEL-5 melanoma
SK-MEL-2 melanoma = system: SK-MEL-2 melanoma
OVCAR-5 ovarian = system: OVCAR-5 ovarian
SR leukemia = system: SR leukemia
KM12 colon = system: KM12 colon
M14 melanoma = system: M14 melanoma
MOLT-4 leukemia = system: MOLT-4 leukemia
OVCAR-3 ovarian = system: OVCAR-3 ovarian
786-0 renal = system: 786-0 renal
NCI-H460 lung = system: NCI-H460 lung
HCC-2998 colon = system: HCC-2998 colon
KM20L2 colon = system: KM20L2 colon
UACC-62 melanoma = system: UACC-62 melanoma
SF-539 CNS = system: SF-539 CNS
SW-620 colon = system: SW-620 colon
SN12C renal = system: SN12C renal
OVCAR-4 ovarian = system: OVCAR-4 ovarian
RPMI-8226 leukemia = system: RPMI-8226 leukemia
SK-OV-3 ovarian = system: SK-OV-3 ovarian
UO-31 renal = system: UO-31 renal
OVCAR-8 ovarian = system: OVCAR-8 ovarian
TK-10 renal = system: TK-10 renal
LXFL 529 NSCLC = system: LXFL 529 NSCLC
HOP-92 NSCLC = system: HOP-92 NSCLC
SNB-19 CNS = system: SNB-19 CNS
DLD-1 colon = system: DLD-1 colon
RXF-631 renal = system: RXF-631 renal
DMS 273 small cell lung = system: DMS 273 small cell lung
SNB-78 CNS = system: SNB-78 CNS
CAKI-1 renal = system: CAKI-1 renal
NCI-H522 lung = system: NCI-H522 lung
A498 renal = system: A498 renal
SNB-75 CNS = system: SNB-75 CNS

CCCCOC(=O)NC(=O)c1cn(CCCOC(=O)CCCCCCCCC(=O)OCCCn2cc(C(=O)NC(=O)OCCCC)c(=O)[nH]c2=O)c(=O)[nH]c1=O
TGI (COLO 205 colon): > 100 µM
TGI (NCI-H226 lung): > 100 µM
TGI (XF 498 CNS): > 100 µM
TGI (HOP-18 NSCLC): > 100 µM
TGI (SK-MEL-28 melanoma): > 100 µM
TGI (K-562 leukemia): > 100 µM
TGI (M19-MEL melanoma): > 100 µM
TGI (A549 NSCLC): > 100 µM
TGI (CCRF-CEM leukemia): > 100 µM
TGI (EKVX NSCLC): > 100 µM
TGI (DMS 114 small cell lung): > 100 µM
TGI (HT29 colon): > 100 µM
TGI (RXF 393 renal): > 100 µM
TGI (HCT-116 colon): > 100 µM
TGI (ACHN renal): > 100 µM
TGI (NCI-H23 lung): > 100 µM
TGI (HCT-15 colon): > 100 µM
TGI (SF-268 CNS): > 100 µM
TGI (HL-60(TB) leukemia): > 100 µM
TGI (U251 CNS): > 100 µM
TGI (IGROV1 ovarian): > 100 µM
TGI (SF-295 CNS): > 100 µM
TGI (LOX IMVI melanoma): > 100 µM
TGI (HOP-62 NSCLC): > 100 µM
TGI (MALME-3M melanoma): > 100 µM
TGI (UACC-257 melanoma): > 100 µM
TGI (SK-MEL-5 melanoma): > 100 µM
TGI (SK-MEL-2 melanoma): > 100 µM
TGI (OVCAR-5 ovarian): > 100 µM
TGI (SR leukemia): > 100 µM
TGI (KM12 colon): > 100 µM
TGI (M14 melanoma): > 100 µM
TGI (MOLT-4 leukemia): > 100 µM
TGI (OVCAR-3 ovarian): > 100 µM
TGI (786-0 renal): > 100 µM
TGI (NCI-H460 lung): > 100 µM
TGI (HCC-2998 colon): > 100 µM
TGI (KM20L2 colon): > 100 µM
TGI (UACC-62 melanoma): > 100 µM
TGI (SF-539 CNS): > 100 µM
TGI (SW-620 colon): > 100 µM
TGI (SN12C renal): > 100 µM
TGI (OVCAR-4 ovarian): > 100 µM
TGI (RPMI-8226 leukemia): > 100 µM
TGI (SK-OV-3 ovarian): > 100 µM
TGI (UO-31 renal): > 100 µM
TGI (OVCAR-8 ovarian): > 100 µM
TGI (TK-10 renal): > 100 µM
TGI (LXFL 529 NSCLC): > 100 µM
TGI (HOP-92 NSCLC): > 100 µM
TGI (SNB-19 CNS): > 100 µM
TGI (DLD-1 colon): > 100 µM
TGI (RXF-631 renal): > 100 µM

CC1=C(C(=O)Nc2ccccc2C)C(c2ccc(Cl)c(Cl)c2)C(C(=O)Nc2ccccc2C)=C(C)N1
TGI (COLO 205 colon): 30 µM
TGI (NCI-H226 lung): 43.8 µM
TGI (XF 498 CNS): 56.4 µM
TGI (HOP-18 NSCLC): 69.4 µM
TGI (SK-MEL-28 melanoma): 71.1 µM
TGI (K-562 leukemia): 79.8 µM
TGI (M19-MEL melanoma): 45.2 µM
TGI (A549 NSCLC): > 100 µM
TGI (CCRF-CEM leukemia): 54.8 µM
TGI (EKVX NSCLC): > 100 µM
TGI (DMS 114 small cell lung): 41 µM
TGI (HT29 colon): 57.7 µM
TGI (RXF 393 renal): 41.6 µM
TGI (DMS 273 small cell lung): 41.1 µM
TGI (SNB-78 CNS): > 100 µM
TGI (HCT-116 colon): 45.2 µM
TGI (ACHN renal): > 100 µM
TGI (NCI-H23 lung): 56.7 µM
TGI (HCT-15 colon): 47.2 µM
TGI (SF-268 CNS): 47.3 µM
TGI (HL-60(TB) leukemia): 45.4 µM
TGI (U251 CNS): 40.5 µM
TGI (IGROV1 ovarian): 93.1 µM
TGI (SF-295 CNS): 43.2 µM
TGI (LOX IMVI melanoma): 37.5 µM
TGI (CAKI-1 renal): > 100 µM
TGI (HOP-62 NSCLC): 66.5 µM
TGI (MALME-3M melanoma): 52.3 µM
TGI (UACC-257 melanoma): 50.7 µM
TGI (SK-MEL-5 melanoma): 31.8 µM
TGI (SK-MEL-2 melanoma): 33.6 µM
TGI (OVCAR-5 ovarian): 53.5 µM
TGI (SR leukemia): 36.8 µM
TGI (KM12 colon): 87.4 µM
TGI (M14 melanoma): 35.3 µM
TGI (MOLT-4 leukemia): 48.8 µM
TGI (OVCAR-3 ovarian): 49.8 µM
TGI (786-0 renal): 67.3 µM
TGI (NCI-H460 lung): 36.4 µM
TGI (HCC-2998 colon): 69.9 µM
TGI (NCI-H522 lung): 29.1 µM
TGI (KM20L2 colon): 34.8 µM
TGI (UACC-62 melanoma): 39.2 µM
TGI (SF-539 CNS): 49.6 µM
TGI (SW-620 colon): > 100 µM
TGI (SN12C renal): 47.2 µM
TGI (OVCAR-4 ovarian): > 100 µM
TGI (RPMI-8226 leukemia): 53.7 µM
TGI (SK-OV-3 ovarian): 81.4 µM
TGI (UO-31 renal): > 100 µM
TGI (OVCAR-8 ovarian): > 100 µM
TGI (TK-10 renal): > 100 µM
TGI (A498 renal): 61.8 µM
TGI (LXFL 529 NSCLC): 43.4 µM
TGI (HOP-92 NSCLC): 33.4 µM
TGI (SNB-19 CNS): > 100 µM
TGI (DLD-1 colon): > 100 µM
TGI (SNB-75 CNS): > 100 µM
TGI (RXF-631 renal): 73.2 µM
